Assay results taken from PubChem BioAssay (NCI).
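48-hour exposure; five concentrations; linearly interpolated endpoints. GI50 = concentration required for 50% inhibition of growth. TGI is the concentration that stops growth completely.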

Experiments:
Assay in all cases: inhibition of tumour cell growth, NCI panel, 48 h
SK-OV-3 ovarian = system: SK-OV-3 ovarian
HS 578T breast = system: HS 578T breast
HCT-116 colon = system: HCT-116 colon
SW-620 colon = system: SW-620 colon
EKVX NSCLC = system: EKVX NSCLC
RXF 393 renal = system: RXF 393 renal
MALME-3M melanoma = system: MALME-3M melanoma
PC-3 prostate = system: PC-3 prostate
IGROV1 ovarian = system: IGROV1 ovarian
BT-549 breast = system: BT-549 breast
SNB-19 CNS = system: SNB-19 CNS
SNB-75 CNS = system: SNB-75 CNS
HT29 colon = system: HT29 colon
OVCAR-5 ovarian = system: OVCAR-5 ovarian
SF-295 CNS = system: SF-295 CNS
COLO 205 colon = system: COLO 205 colon
MDA-MB-435 = system: MDA-MB-435
UO-31 renal = system: UO-31 renal
OVCAR-3 ovarian = system: OVCAR-3 ovarian
NCI-H23 lung = system: NCI-H23 lung
SF-268 CNS = system: SF-268 CNS
SK-MEL-28 melanoma = system: SK-MEL-28 melanoma
UACC-62 melanoma = system: UACC-62 melanoma
A549 NSCLC = system: A549 NSCLC
CCRF-CEM leukemia = system: CCRF-CEM leukemia
HCT-15 colon = system: HCT-15 colon
K-562 leukemia = system: K-562 leukemia
A498 renal = system: A498 renal
SN12C renal = system: SN12C renal
OVCAR-4 ovarian = system: OVCAR-4 ovarian
OVCAR-8 ovarian = system: OVCAR-8 ovarian
HCC-2998 colon = system: HCC-2998 colon
NCI/ADR-RES ovarian = system: NCI/ADR-RES ovarian
U251 CNS = system: U251 CNS
CAKI-1 renal = system: CAKI-1 renal
MOLT-4 leukemia = system: MOLT-4 leukemia
786-0 renal = system: 786-0 renal
NCI-H460 lung = system: NCI-H460 lung
SK-MEL-2 melanoma = system: SK-MEL-2 melanoma
MCF7 breast = system: MCF7 breast
HL-60(TB) leukemia = system: HL-60(TB) leukemia
T-47D breast = system: T-47D breast
LOX IMVI melanoma = system: LOX IMVI melanoma
HOP-62 NSCLC = system: HOP-62 NSCLC
TK-10 renal = system: TK-10 renal
M14 melanoma = system: M14 melanoma
DU-145 prostate = system: DU-145 prostate
HOP-92 NSCLC = system: HOP-92 NSCLC
NCI-H522 lung = system: NCI-H522 lung
UACC-257 melanoma = system: UACC-257 melanoma
KM12 colon = system: KM12 colon
NCI-H226 lung = system: NCI-H226 lung
MDA-MB-231 breast = system: MDA-MB-231 breast
ACHN renal = system: ACHN renal
RPMI-8226 leukemia = system: RPMI-8226 leukemia
SF-539 CNS = system: SF-539 CNS
SK-MEL-5 melanoma = system: SK-MEL-5 melanoma

**Q.** What does the source list for `C[C@@H]1CN(c2ccc3ncc(C#Cc4cncc(C(=O)Nc5ccc(CN6CCN(C)CC6)c(C(F)(F)F)c5)c4)n3n2)C[C@H](C)O1`?
**A.** GI50 (SK-OV-3 ovarian): 216 nM; TGI (SK-OV-3 ovarian): 736 nM; GI50 (HS 578T breast): 32.8 nM; TGI (HS 578T breast): 348 nM; GI50 (HCT-116 colon): 34.5 nM; TGI (HCT-116 colon): 274 nM; GI50 (SW-620 colon): 57.7 nM; TGI (SW-620 colon): 2450 nM; GI50 (EKVX NSCLC): 39.9 nM; TGI (EKVX NSCLC): 300 nM; GI50 (RXF 393 renal): 30.1 nM; TGI (RXF 393 renal): 141 nM; GI50 (MALME-3M melanoma): 77.8 nM; TGI (MALME-3M melanoma): 251 nM; GI50 (PC-3 prostate): 128 nM; TGI (PC-3 prostate): 1810 nM; GI50 (IGROV1 ovarian): 34.4 nM; TGI (IGROV1 ovarian): 201 nM; GI50 (BT-549 breast): 135 nM; TGI (BT-549 breast): 411 nM; GI50 (SNB-19 CNS): 325 nM; TGI (SNB-19 CNS): 1150 nM; GI50 (SNB-75 CNS): 102 nM; TGI (SNB-75 CNS): 235 nM; GI50 (HT29 colon): 67.4 nM; TGI (HT29 colon): 1100 nM; GI50 (OVCAR-5 ovarian): 157 nM; TGI (OVCAR-5 ovarian): 975 nM; GI50 (SF-295 CNS): 214 nM; TGI (SF-295 CNS): 1530 nM; GI50 (COLO 205 colon): 135 nM; TGI (COLO 205 colon): 781 nM; GI50 (MDA-MB-435): 86.1 nM; TGI (MDA-MB-435): 1110 nM; GI50 (UO-31 renal): 79.8 nM; TGI (UO-31 renal): 361 nM; GI50 (OVCAR-3 ovarian): 98.2 nM; TGI (OVCAR-3 ovarian): 1150 nM; GI50 (NCI-H23 lung): 102 nM; TGI (NCI-H23 lung): 322 nM; GI50 (SF-268 CNS): 111 nM; TGI (SF-268 CNS): 522 nM; GI50 (SK-MEL-28 melanoma): 295 nM; TGI (SK-MEL-28 melanoma): 1340 nM; GI50 (UACC-62 melanoma): 138 nM; TGI (UACC-62 melanoma): 1010 nM; GI50 (A549 NSCLC): 63.6 nM; TGI (A549 NSCLC): 410 nM; GI50 (CCRF-CEM leukemia): 200 nM; TGI (CCRF-CEM leukemia): 10300 nM; GI50 (HCT-15 colon): 45.4 nM; TGI (HCT-15 colon): 471 nM; TGI (K-562 leukemia): 359 nM; GI50 (A498 renal): 118 nM; TGI (A498 renal): 253 nM; GI50 (SN12C renal): 26.9 nM; TGI (SN12C renal): 275 nM; GI50 (OVCAR-4 ovarian): 123 nM; TGI (OVCAR-4 ovarian): 1590 nM; GI50 (OVCAR-8 ovarian): 176 nM; TGI (OVCAR-8 ovarian): 991 nM; GI50 (HCC-2998 colon): 153 nM; TGI (HCC-2998 colon): 956 nM; GI50 (NCI/ADR-RES ovarian): 445 nM; TGI (NCI/ADR-RES ovarian): 1910 nM; GI50 (U251 CNS): 119 nM; TGI (U251 CNS): 1300 nM; GI50 (CAKI-1 renal): 33.9 nM; TGI (CAKI-1 renal): 157 nM; GI50 (MOLT-4 leukemia): 77.7 nM; TGI (MOLT-4 leukemia): 529 nM; GI50 (786-0 renal): 48.3 nM; TGI (786-0 renal): 202 nM; GI50 (NCI-H460 lung): 74.9 nM; TGI (NCI-H460 lung): 732 nM; GI50 (SK-MEL-2 melanoma): 130 nM; TGI (SK-MEL-2 melanoma): 294 nM; GI50 (MCF7 breast): 51.3 nM; TGI (MCF7 breast): 651 nM; GI50 (HL-60(TB) leukemia): 50.7 nM; TGI (HL-60(TB) leukemia): 312 nM; GI50 (T-47D breast): 363 nM; TGI (T-47D breast): 5360 nM; GI50 (LOX IMVI melanoma): 36.8 nM; TGI (LOX IMVI melanoma): 144 nM; GI50 (HOP-62 NSCLC): 121 nM; TGI (HOP-62 NSCLC): 844 nM; GI50 (TK-10 renal): 68.3 nM; TGI (TK-10 renal): 400 nM; GI50 (M14 melanoma): 36.5 nM; TGI (M14 melanoma): 322 nM; GI50 (DU-145 prostate): 50.4 nM; TGI (DU-145 prostate): 292 nM; GI50 (HOP-92 NSCLC): 28.8 nM; TGI (HOP-92 NSCLC): 118 nM; GI50 (NCI-H522 lung): 33.9 nM; TGI (NCI-H522 lung): 181 nM; GI50 (UACC-257 melanoma): 228 nM; TGI (UACC-257 melanoma): 1410 nM; TGI (KM12 colon): 563 nM; GI50 (NCI-H226 lung): 33.9 nM; TGI (NCI-H226 lung): 334 nM; GI50 (MDA-MB-231 breast): 32 nM; TGI (MDA-MB-231 breast): 223 nM; GI50 (ACHN renal): 37.5 nM; TGI (ACHN renal): 211 nM; GI50 (RPMI-8226 leukemia): 258 nM; TGI (RPMI-8226 leukemia): 5640 nM; GI50 (SF-539 CNS): 33.2 nM; TGI (SF-539 CNS): 135 nM; GI50 (SK-MEL-5 melanoma): 270 nM; TGI (SK-MEL-5 melanoma): 1160 nM
